Data published in US11306079B2, “3-(5-amino-pyrazin-2-yl)-benzenesulfonamide derivatives and related compounds as PI3K-gamma kinase inhibitors” (Incyte Corporation, priority 2017, dated 2022).
Structures can show the parent of a compound that is named as a salt.

Experiments:
[1] = target: PI3Kγ (p110γ) Recombinant Human Protein (Homo sapiens (Human), UniProt P48736); experiment: PI3K-γ Scintillation Proximity Assay; type: biochemical; details: 20 μM PIP2, 2 μM ATP, 13 nM PI3Kγ, 120 min, room temperature
How it was run: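 Recombinant human p110γ (13 nM) phosphorylated 20 μM PIP2 with 2 μM ATP plus [γ-33P]ATP in 20 mM MOPS pH 6.7, 10 mM MgCl2, 5 mM DTT, 0.03% CHAPS, 2% DMSO, 120 min at room temperature. Radiolabelled product was captured on WGA SPA beads and counted. IC50 came from curves of percent solvent-control activity.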

[2] = target: PI3Kδ (p110δ/p85α) Recombinant Human Protein (Homo sapiens (Human), UniProt O00329); experiment: PI3Kδ Scintillation Proximity Assay; type: biochemical; details: 20 μM PIP2, 2 μM ATP, 3.4 nM PI3Kδ, 120 min, room temperature
How it was run: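 Recombinant human p110δ/p85α (3.4 nM) phosphorylates 20 μM di-octanoyl PIP2 using 2 μM ATP spiked with [γ-33P]ATP, 120 min, room temperature, pH 6.7, 2% DMSO. Product measured by scintillation proximity; IC50 from dose-response fit.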

[3] = tested on: Phosphorylated Ribosomal Protein S6 (RPS6) in THP-1 cells; experiment: THP-1 RPS6 ELISA Assay; type: cell-based; details: Homo sapiens; serum starved THP-1 cells, 2 hours with compound, 10 nM MCP-1 for 15 minutes, Phospho-RPS6 ELISA; read-out: PI3Kγ_THP1_RPS6_ELISA IC50
How it was run: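 Serum-starved THP-1 cells (2×10^5/well, RPMI) preincubated with compound 2 h at 37° C, then stimulated with 10 nM MCP-1 for 15 min. Lysates assayed by phospho-RPS6 ELISA, absorbance 450 nm (540 nm correction); IC50 from percent inhibition versus log concentration.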

Chain of PI3Kδ (p110δ/p85α) Recombinant Human Protein (O00329 whole entry): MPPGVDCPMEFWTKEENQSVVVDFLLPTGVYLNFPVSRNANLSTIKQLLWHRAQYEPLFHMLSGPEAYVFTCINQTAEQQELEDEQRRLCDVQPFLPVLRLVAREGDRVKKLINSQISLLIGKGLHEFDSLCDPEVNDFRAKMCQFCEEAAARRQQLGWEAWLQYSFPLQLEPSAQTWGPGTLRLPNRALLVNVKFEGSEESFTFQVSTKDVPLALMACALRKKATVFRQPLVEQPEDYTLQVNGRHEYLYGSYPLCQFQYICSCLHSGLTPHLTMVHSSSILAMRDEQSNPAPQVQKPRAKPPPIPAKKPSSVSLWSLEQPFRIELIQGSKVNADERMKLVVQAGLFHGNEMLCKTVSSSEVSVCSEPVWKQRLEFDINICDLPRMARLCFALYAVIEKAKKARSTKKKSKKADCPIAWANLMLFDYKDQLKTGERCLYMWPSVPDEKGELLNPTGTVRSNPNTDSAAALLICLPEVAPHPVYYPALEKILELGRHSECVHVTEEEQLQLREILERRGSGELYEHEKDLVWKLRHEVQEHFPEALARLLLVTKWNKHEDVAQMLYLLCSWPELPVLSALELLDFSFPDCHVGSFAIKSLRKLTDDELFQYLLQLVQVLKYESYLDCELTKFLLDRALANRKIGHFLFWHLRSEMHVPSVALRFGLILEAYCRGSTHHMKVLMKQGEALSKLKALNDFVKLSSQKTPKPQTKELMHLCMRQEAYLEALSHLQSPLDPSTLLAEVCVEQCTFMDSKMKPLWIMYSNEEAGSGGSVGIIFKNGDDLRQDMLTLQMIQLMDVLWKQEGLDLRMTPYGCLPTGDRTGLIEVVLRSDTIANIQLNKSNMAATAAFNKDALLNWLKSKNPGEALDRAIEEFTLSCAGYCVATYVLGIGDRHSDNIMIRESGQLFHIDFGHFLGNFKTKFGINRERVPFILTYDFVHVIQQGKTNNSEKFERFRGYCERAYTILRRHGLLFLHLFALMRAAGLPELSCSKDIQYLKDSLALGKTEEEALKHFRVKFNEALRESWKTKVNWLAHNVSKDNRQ
Chain of PI3Kδ (p110δ/p85α) Recombinant Human Protein (P27986 whole entry partner): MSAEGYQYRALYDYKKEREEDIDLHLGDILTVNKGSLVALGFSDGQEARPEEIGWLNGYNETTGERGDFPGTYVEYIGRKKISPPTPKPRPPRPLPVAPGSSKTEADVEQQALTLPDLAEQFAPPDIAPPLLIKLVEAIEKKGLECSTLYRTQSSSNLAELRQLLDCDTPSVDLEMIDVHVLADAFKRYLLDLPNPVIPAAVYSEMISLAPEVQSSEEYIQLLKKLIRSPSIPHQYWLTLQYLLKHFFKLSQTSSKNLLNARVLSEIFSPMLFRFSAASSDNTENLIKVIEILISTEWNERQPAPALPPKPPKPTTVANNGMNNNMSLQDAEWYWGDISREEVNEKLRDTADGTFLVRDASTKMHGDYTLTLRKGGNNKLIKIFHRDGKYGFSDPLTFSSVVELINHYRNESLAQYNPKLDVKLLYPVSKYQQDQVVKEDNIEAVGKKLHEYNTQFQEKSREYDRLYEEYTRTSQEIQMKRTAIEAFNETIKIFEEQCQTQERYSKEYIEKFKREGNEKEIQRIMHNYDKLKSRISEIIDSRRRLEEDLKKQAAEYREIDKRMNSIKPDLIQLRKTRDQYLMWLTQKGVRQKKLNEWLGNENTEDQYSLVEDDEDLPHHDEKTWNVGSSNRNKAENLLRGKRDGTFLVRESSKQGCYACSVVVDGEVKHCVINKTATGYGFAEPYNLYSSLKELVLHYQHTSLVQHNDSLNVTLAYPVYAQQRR
Chain of PI3Kγ (p110γ) Recombinant Human Protein (P48736 whole entry): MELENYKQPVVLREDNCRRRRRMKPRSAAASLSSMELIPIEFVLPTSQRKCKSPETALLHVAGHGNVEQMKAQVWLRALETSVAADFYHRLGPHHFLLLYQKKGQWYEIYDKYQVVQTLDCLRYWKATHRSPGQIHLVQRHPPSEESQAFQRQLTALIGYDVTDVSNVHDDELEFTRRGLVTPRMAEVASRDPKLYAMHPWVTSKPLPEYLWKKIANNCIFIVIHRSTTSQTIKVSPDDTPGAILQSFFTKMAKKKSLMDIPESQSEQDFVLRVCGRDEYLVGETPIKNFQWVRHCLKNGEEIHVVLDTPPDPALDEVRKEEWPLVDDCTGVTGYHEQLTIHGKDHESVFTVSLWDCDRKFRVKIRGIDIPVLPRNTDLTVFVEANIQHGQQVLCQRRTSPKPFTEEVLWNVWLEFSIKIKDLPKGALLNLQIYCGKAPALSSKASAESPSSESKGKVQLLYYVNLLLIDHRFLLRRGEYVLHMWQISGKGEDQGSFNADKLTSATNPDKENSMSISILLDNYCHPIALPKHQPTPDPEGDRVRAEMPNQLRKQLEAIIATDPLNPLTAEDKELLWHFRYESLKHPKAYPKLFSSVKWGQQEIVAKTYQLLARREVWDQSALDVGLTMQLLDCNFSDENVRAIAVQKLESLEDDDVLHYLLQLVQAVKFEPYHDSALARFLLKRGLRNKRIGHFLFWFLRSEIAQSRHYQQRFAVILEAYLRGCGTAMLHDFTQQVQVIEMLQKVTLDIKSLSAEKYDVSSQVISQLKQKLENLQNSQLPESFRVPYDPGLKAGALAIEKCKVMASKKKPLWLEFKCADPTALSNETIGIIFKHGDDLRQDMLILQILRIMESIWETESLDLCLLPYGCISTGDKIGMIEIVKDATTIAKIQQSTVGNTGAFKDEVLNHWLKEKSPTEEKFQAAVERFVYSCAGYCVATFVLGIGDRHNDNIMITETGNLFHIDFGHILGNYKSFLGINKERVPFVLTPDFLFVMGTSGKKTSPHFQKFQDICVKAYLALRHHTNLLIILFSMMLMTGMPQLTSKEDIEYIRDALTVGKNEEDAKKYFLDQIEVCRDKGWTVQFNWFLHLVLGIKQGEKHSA

| Compound | IC50 [1] [nM] | IC50 [2] [nM] | IC50 [3] [nM] |
| --- | --- | --- | --- |
| CC(=O)NC12CC(NS(=O)(=O)c3ccc(C)c(-c4cnc(N)c(-n5cncn5)n4)c3)(C1)C2 [Example 40, N-(3-(3-(5-Amino-6-(1H-1,2,4-triazol-1-yl)pyrazin-2-yl)-4-methylphenylsulfonamido)bicyclo[1.1.1]pentan-1-yl)acetamide Trifluoroacetate Salt] | ≤ 100 | ≤ 500 | ≤ 1000 |
| Cc1ncc(-c2cc(-c3cc(S(=O)(=O)NC45COC(CO)(C4)C5)ccc3C)cnc2N)s1 [Example 86, 3-(6-amino-5-(2-methylthiazol-5-yl)pyridin-3-yl)-N-(1-(hydroxymethyl)-2-oxabicyclo[2.1.1]hexan-4-yl)-4-methylbenzenesulfonamide] | ≤ 100 | ≤ 500 | ≤ 500 |
| Cc1ncc(-c2nc(-c3cc(S(=O)(=O)NC45CC(CO)(C4)C5)ccc3C)cnc2N)s1 [Example 3, 3-(5-Amino-6-(2-methylthiazol-5-yl)pyrazin-2-yl)-N-(3-(hydroxymethyl)bicyclo[1.1.1]pentan-1-yl)-4-methylbenzenesulfonamide trifluoroacetate salt] | ≤ 100 | ≤ 100 | ≤ 100 |
